One experiment concerns CT-DNA. Kind of experiment: UV-Vis absorption titration with CT-DNA. On the set-up: species or system calf. The settings on record: intrinsic binding constant, Tris–HCl buffer pH 7.2. The source says:
DNA-binding studies are important for the rational design and construction of new and more efficient drugs targeted to DNA.[42] The binding affinity of the ligands and their organoruthenium(II) complexes with CT-DNA can be measured by using UV-Vis spectroscopy. The UV-Vis absorption spectra of the free ligands and their complexes in the absence and presence of CT DNA are given in Fig. S25 ^† and 7. […] The decrease in absorbance with increase in concentration of CT-DNA may be due to the decrease in transition probabilities as a result of partial transfer of electrons from the π orbital of the DNA base pairs to the coupled π* orbital of the coordinated Schiff base to metal due to overlapping.[43] The extent of hypochromism in the charge transfer band is an indication of the strength of intercalative interaction.[43]
In order to compare the DNA-binding affinities of the ligands and their metal complexes quantitatively, their intrinsic binding constants Kbin were obtained according to eqn (S1). ^† The binding constant value was calculated from the plot of [DNA]/(εa − εf) versus [DNA] and the data were given in Table 3 (Fig. 8). […] This may be due to the presence of different substituents in the terminal nitrogen atom of the ligands.
Supplementary Information
All the experiments involving CT-DNA binding were carried out in deionised water with tris(hydroxymethyl)-aminomethane (Tris, 5 mM) and sodium chloride (50 mM) and adjusted to pH 7.2 with hydrochloric acid at room temperature. The concentration of CT-DNA was determined by UV absorbance at 260 nm. Solutions of CT-DNA in Tris-HCl buffer gave a ratio of UV absorbance at 260 and 280 nm, A260/A280, of approximately 1.9, […]
The molar absorption coefficient, ε260, was taken as 6600 M−1 cm−1.Various concentrations of CT-DNA (2-2.5 µM) was added to the complexes (25 µM dissolved in DMSO/Tris-HCl buffer, 1 % DMSO in the final solution). While measuring the absorption spectra, an equal amount of DNA was added to both the test and reference solutions to eliminate the absorbance of DNA itself. Control experiments with DMSO were performed and no change in the spectra of CT-DNA was observed. Absorption spectra were recorded after equilibrium at 20 °C for 10 min. The intrinsic binding constant K b was determined by using following equation(1) [DNA]/[εa-εf]) = [DNA]/[ε b-εf]+1/Kb[εb-εf] (S1)
The absorption coefficients εa, εf and εb correspond to Aobsd/[DNA], the extinction coefficient for the free compound and for the compound in the fully bound form respectively. The slope and the intercept of the linear fit of the plot of [DNA]/[εa −εf] versus [DNA] give […] and 1/Kb[εb−εf] respectively. The intrinsic binding constant Kb can be obtained from the ratio of the slope to the intercept. […]

Another experiment has as its target T1, HSA (Homo sapiens, UniProt P02768).
T1 construct: purchased HiMedia (Mumbai, India)
Kind of experiment: Three-dimensional fluorescence spectra of HSA. It counts as binding. The note with it: HSA 10 μM + compound 10 μM, pH 7.4, 298 K. The source says:
To investigate the micro environmental changes in BSA/HSA during interaction with the compounds, three dimensional fluorescence spectroscopic studies have been performed. The changes observed in 3D emission spectra and contour lines of serum albumins in the absence and presence of ligands and complexes are given in Fig. 15, 16, S34 and S35 in the ESI ^† and their corresponding characteristic parameters are provided in Table 5. The emission spectra of serum albumins such as BSA and HSA have shown three characteristic peaks – peaks A and C corresponds to first and second order Rayleigh scattering and peak B corresponds to the spectral characteristics of Trp and Tyr residues of proteins.[57] The emission intensity of Rayleigh first order scattering peak increased upon adding the compounds to serum albumins. […] The fluorescence intensity of peak ‘B’ corresponding to the tryptophan and tyrosine residues decreased with slight blue shift. From the results, it is inferred that the molecular microenvironment and conformational changes of protein occurred after interaction with the complexes and ligands.
Fig. 16 Three-dimensional fluorescence spectra of HSA in the absence and presence of ruthenium(II) complexes 1–4 (pH 7.4, 298 K, [HSA] = 10 μM, [complex] = 10 μM).
Fig. S35. Three-dimensional fluorescence spectra of HSA in the absence and presence of
ligands H 2L1-4 (pH 7.4, 298 K, [HSA] =10 µM, [Ligand] =10 µM) […]

A short description of experiment [1]: DPPH radical scavenging assay. The note with it: in methanol. The procedure:
It has been reported that free radical species such as reactive oxygen species (ROS), are involved in the pathogenesis of various diseases through effects on DNA directly and by acting as a tumour promoter.[59,60] The DPPH free radical scavenging activity of the ligands and complexes were studied and quantitatively antioxidant properties were determined by using phosphomolybdate method. We knew that the inhibitory effects of the tested compounds on DPPH radical are concentration dependent and the suppression ratio increases with increasing sample concentrations (Fig. S36 ^†). […] In the phosphomolybdenum assay, the antioxidant activity is expressed as the number of equivalents of ascorbic acid (Table 6). The total antioxidant activity of the compounds is in the following order complex 3 > complex 2 > complex 1 > complex 4 > H2L^3 > H2L^2 > H2L^1 > H2L^4 > ascorbic acid > [RuHClCO(PPh3)3]. The results concluded that the metal complexes are better antioxidants than their parent ligands which may be due to the chelation of the ligands to metal ion.[35] The radical scavenging ability of the new complexes is greater than that of few other reported ruthenium complexes, containing Schiff base ligands.[9]
The DPPH radical scavenging activity of the compounds have been carried out according to the reported method.[74] In this study, various concentrations of the experimental standard ascorbic acid, [RuHCl(CO)(PPh3)3], ligands (20–100 μM) and complexes (2–10 μM) in methanol were taken. Total antioxidant activity of the compounds was determined by the phosphomolybdate method.[75]

T1 sequence (P02768 25-609): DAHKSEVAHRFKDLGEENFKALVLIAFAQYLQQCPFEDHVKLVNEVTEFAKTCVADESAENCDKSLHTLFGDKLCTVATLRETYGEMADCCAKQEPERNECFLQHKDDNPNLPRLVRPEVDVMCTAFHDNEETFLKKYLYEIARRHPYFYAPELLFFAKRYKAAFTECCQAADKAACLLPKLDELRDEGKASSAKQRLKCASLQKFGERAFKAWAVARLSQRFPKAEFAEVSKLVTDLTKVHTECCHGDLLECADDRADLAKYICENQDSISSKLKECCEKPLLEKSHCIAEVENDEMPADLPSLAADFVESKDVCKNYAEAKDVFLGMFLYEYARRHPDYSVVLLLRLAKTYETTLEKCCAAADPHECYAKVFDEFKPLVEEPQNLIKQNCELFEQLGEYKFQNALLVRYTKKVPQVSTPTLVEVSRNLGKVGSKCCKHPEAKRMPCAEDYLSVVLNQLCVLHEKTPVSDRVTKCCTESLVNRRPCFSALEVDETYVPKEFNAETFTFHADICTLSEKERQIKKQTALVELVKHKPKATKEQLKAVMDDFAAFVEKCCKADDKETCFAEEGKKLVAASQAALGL

For `COc1ccc2[c]3c(c(=O)oc2c1)C(C)=[N+]1N=C(N)[S][Ru-4]31([C]#[O+])([P+](c1ccccc1)(c1ccccc1)c1ccccc1)[P+](c1ccccc1)(c1ccccc1)c1ccccc1` [Complex 1, [Ru(7MAC-tsc)(CO)(PPh3)2]], the “Binding constant Kbin” value with CT-DNA is listed as 1.2544 ± 0.304 × 10^6 M^−1. For the same compound, on HSA, the “Fluorescence peaks Intensity (F)” value is on record as 268.14, the “Fluorescence peaks Peak position λex/λem” value was 280/335, the “Fluorescence peaks Stokes Δλ” value was found to be 55 nm and the “Rayleigh scattering peaks Intensity (F)” value came to 652.04. In experiment [1], 7.13 ± 0.23 µM corresponded to half-maximal inhibition (IC50).
Take `CNC1=N[N+]2=C(C)c3[c](c4ccc(OC)cc4oc3=O)[Ru-4]2([C]#[O+])([P+](c2ccccc2)(c2ccccc2)c2ccccc2)([P+](c2ccccc2)(c2ccccc2)c2ccccc2)[S]1` [Complex 2, [Ru(7MAC-mtsc)(CO)(PPh3)2]]: in the experiment on CT-DNA, the “Binding constant Kbin” value is 1.3958 ± 0.320 × 10^6 M^−1. Moreover, at HSA, the “Fluorescence peaks Intensity (F)” value was determined as 269.53, the “Fluorescence peaks Peak position λex/λem” value is on record as 280/331, the “Fluorescence peaks Stokes Δλ” value was determined as 51 nm and the “Rayleigh scattering peaks Intensity (F)” value stood at 790.59. For the same compound, the IC50 in experiment [1] amounted to 6.75 ± 0.18 µM.
For the compound `CCNC1=N[N+]2=C(C)c3[c](c4ccc(OC)cc4oc3=O)[Ru-4]2([C]#[O+])([P+](c2ccccc2)(c2ccccc2)c2ccccc2)([P+](c2ccccc2)(c2ccccc2)c2ccccc2)[S]1` [Complex 3, [Ru(7MAC-etsc)(CO)(PPh3)2]], the “Binding constant Kbin” value in the experiment on CT-DNA is given as 1.4428 ± 0.279 × 10^6 M^−1. Also, at HSA, the “Fluorescence peaks Intensity (F)” value was 266.21, the “Fluorescence peaks Peak position λex/λem” value is 280/337, the “Fluorescence peaks Stokes Δλ” value is recorded as 57 nm and the “Rayleigh scattering peaks Intensity (F)” value came out at 612.58. The compound further had an IC50 in experiment [1] of 5.28 ± 0.24 µM.
With `COc1ccc2[c]3c(c(=O)oc2c1)C(C)=[N+]1N=C(Nc2ccccc2)[S][Ru-4]31([C]#[O+])([P+](c1ccccc1)(c1ccccc1)c1ccccc1)[P+](c1ccccc1)(c1ccccc1)c1ccccc1` [Complex 4, [Ru(7MAC-ptsc)(CO)(PPh3)2]], the “Binding constant Kbin” value in the experiment with CT-DNA is reported as 1.0636 ± 0.334 × 10^6 M^−1. For the same compound, on HSA, the “Fluorescence peaks Intensity (F)” value is given as 276.12, the “Fluorescence peaks Peak position λex/λem” value is 280/332, the “Fluorescence peaks Stokes Δλ” value stood at 52 nm and the “Rayleigh scattering peaks Intensity (F)” value stood at 830.46. The IC50 in experiment [1] worked out at 7.39 ± 0.14 µM.

(Values after publication PMC9077138, “An investigation on 3-acetyl-7-methoxy-coumarin Schiff bases and their Ru(II) metallates with potent antiproliferative activity and enhanced LDH and NO release” (RSC Advances, 2018).)
